Converted amounts (≈) assume the structure as drawn. The source made the active and inactive calls. No cut-off for these calls is given here.

In series [1] the target is T1, fMet-Leu-Phe receptor (Homo sapiens, UniProt P21462).
T1 sequence (P21462 whole entry): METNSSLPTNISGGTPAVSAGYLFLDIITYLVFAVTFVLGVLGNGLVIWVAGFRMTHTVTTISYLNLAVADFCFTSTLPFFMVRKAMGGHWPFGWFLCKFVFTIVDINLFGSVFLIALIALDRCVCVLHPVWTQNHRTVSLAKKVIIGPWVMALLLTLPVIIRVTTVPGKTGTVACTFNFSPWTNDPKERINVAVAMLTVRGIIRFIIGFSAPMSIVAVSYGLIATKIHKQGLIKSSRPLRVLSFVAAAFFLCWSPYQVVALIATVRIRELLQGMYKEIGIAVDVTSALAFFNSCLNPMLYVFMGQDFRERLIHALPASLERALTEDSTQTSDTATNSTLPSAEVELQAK
The series is described as follows: (§1) Intrinsic activity at FPR1 in human neutrophils assessed as increase in calcium mobilization by FLIPR assay relative to fMLF. In kind it is functional. (A change in cytosolic calcium serves as a functional read-out for many receptors and channels.)

The target in series [2] is T2, fMet-Leu-Phe receptor (Homo sapiens) (UniProt P21462).
T2 sequence (whole entry): T1 sequence (P21462 whole entry)
In words: (§2) Agonist activity at FPR1 in human neutrophils assessed as increase in calcium mobilization by FLIPR assay. Also noted: concentration or dose not given beside the values. Conditions: concentration not given here. In kind it is functional.

Series [3] addresses T2, fMet-Leu-Phe receptor (Homo sapiens). In words: Antagonist activity at FPR1 in human neutrophils assessed as inhibition of fMLF-stimulated calcium mobilization at 50 uM by FLIPR assay. In kind it is functional.
The nature of series [4]: Intrinsic clearance in human microsomes. In kind it is ADME, Microsome.
In series [5] the target is T1, fMet-Leu-Phe receptor. The description is as §2. In kind it is functional.
The target of series [6] is T2, fMet-Leu-Phe receptor (Homo sapiens). The description is as §1. In kind it is functional.
Series [7] concerns the target T3, C-X-C chemokine receptor type 2 (Homo sapiens) (UniProt P25025).
T3 sequence (whole entry): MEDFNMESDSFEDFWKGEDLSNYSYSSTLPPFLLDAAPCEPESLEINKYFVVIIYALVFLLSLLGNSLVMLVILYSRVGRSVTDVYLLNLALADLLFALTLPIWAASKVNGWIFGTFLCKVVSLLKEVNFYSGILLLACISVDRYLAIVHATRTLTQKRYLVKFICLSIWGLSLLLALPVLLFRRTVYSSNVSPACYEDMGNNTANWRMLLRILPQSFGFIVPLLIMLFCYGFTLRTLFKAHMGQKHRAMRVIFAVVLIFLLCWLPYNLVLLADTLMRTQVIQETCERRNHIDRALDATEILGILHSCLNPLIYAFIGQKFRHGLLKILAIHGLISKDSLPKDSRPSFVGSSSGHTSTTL
The series is described as follows: Antagonist activity at CXCR2 in human neutrophils assessed as inhibition of GROalpha-stimulated intracellular calcium mobilization at 50 uM by FLIPR assay. In kind it is functional, cell-based.

The subject of a further series is THP-1. The series is described as follows: Cytotoxicity against human THP1 cells assessed as cell viability after 24 hrs by Alamar blue assay. In kind it is cell-based. Conditions: THP-1, 24 h. For orientation: Resazurin is reduced to fluorescent resorufin, in cell work by metabolically active cells.
Series [8] has as its target T1, fMet-Leu-Phe receptor. The series is described as follows: Antagonist activity at FPR1 in human neutrophils assessed as inhibition of fMLF-stimulated calcium mobilization by FLIPR assay. In kind it is functional.
Series [9] can be described thus: Antagonist activity at rat FPR1 expressed in HEK293 cells assessed as inhibition of fMLF-stimulated intracellular calcium mobilisation by FLIPR assay. In kind it is functional, cell-based.
The nature of series [10]: Chemical stability of the compound assessed as half life. In kind it is physicochemical.
Series [11] concerns the target T4, N-formyl peptide receptor 2 (Homo sapiens) (UniProt P25090).
T4 sequence (whole entry): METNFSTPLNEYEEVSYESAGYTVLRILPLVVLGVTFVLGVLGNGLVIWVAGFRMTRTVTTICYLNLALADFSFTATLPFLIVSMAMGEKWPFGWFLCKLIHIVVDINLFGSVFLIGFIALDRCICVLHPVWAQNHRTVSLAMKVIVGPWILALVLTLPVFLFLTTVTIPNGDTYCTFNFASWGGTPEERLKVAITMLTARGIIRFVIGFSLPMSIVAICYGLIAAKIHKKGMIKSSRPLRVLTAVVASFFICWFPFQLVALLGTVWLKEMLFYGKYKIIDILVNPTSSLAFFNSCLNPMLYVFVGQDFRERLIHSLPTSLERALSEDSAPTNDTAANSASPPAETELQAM
The series is described as follows: Antagonist activity at FPR2 in human neutrophils assessed as inhibition of SHHGtide-stimulated intracellular calcium mobilisation at 50 uM by FLIPR assay. In kind it is functional, cell-based.

Series [12] addresses T5, C5a anaphylatoxin chemotactic receptor 1 (Homo sapiens) (UniProt P21730).
T5 sequence (whole entry): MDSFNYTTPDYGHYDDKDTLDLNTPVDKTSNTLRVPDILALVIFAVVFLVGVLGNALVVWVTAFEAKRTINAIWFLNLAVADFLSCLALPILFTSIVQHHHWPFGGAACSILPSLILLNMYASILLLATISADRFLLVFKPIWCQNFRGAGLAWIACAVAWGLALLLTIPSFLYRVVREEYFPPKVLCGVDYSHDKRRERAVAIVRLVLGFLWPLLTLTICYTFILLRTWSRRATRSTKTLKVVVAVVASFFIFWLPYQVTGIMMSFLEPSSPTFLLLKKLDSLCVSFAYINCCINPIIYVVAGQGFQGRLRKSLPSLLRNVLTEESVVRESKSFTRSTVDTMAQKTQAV
The series is described as follows: Antagonist activity at C5aR in human neutrophils assessed as inhibition of C5a-stimulated intracellular calcium mobilization at 50 uM by FLIPR assay. In kind it is functional, cell-based.

Series [13] concerns the target T1, fMet-Leu-Phe receptor. The series is described as follows: Displacement of [3H]fMLF from human FPR1 expressed in CHO cells by scintillation counting. In kind it is cell-based. On the technique in general: In a radioligand displacement assay an active substance lowers the binding of a labelled ligand.
For series [14], the target named is T2, fMet-Leu-Phe receptor (Homo sapiens). In words: Reversible inhibition of FPR1 in human neutrophils assessed as inhibition of fMLF-stimulated calcium mobilisation by FLIPR assay. In kind it is functional.
Series [15] shares this target. In words: Antagonist activity at FPR1 in human neutrophils assessed as inhibition of PMA-stimulated neutrophil degranulation after 15 mins by fluorescence assay. In kind it is functional.
Series [16] addresses T6, fMet-Leu-Phe receptor (Mus musculus, UniProt P33766).
T6 sequence (P33766 whole entry): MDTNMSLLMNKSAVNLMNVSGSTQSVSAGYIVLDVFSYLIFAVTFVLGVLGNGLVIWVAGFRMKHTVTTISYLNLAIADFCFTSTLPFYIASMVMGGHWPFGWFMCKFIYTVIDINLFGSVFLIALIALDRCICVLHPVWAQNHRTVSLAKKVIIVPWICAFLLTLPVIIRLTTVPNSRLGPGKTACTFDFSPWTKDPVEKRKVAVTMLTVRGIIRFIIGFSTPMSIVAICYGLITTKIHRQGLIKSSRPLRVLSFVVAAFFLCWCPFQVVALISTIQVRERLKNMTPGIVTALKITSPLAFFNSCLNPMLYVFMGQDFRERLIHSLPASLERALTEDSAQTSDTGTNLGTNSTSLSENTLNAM
In words: Antagonist activity at mouse FPR1 expressed in HEK293 cells assessed as inhibition of fMLFF-stimulated intracellular calcium mobilisation by FLIPR assay. In kind it is functional, cell-based.

Series [17] concerns the target T2, fMet-Leu-Phe receptor (Homo sapiens). In words: Agonist activity at FPR1 in human neutrophils assessed as increase in calcium mobilization at 50 uM by FLIPR assay. In kind it is functional.
In series [18] the target is T1, fMet-Leu-Phe receptor. The series is described as follows: Antagonist activity at human FPR1 in expressed in HEK293 cells assessed as inhibition of fMLF-stimulated intracellular calcium mobilisation after 5 mins by FLIPR assay. In kind it is functional, cell-based.
The nature of series [19]: Solubility of the compound in 0.1 M phosphate buffer. In kind it is physicochemical.
The test system of another series is Hepatocyte. In words: Intrinsic clearance in Sprague-Dawley rat hepatocytes. In kind it is ADME, cell-based, Liver.
Series [20] has as its target T1, fMet-Leu-Phe receptor. In words: Antagonist activity at FPR1 in human neutrophils assessed as inhibition of fMLF-stimulated degranulation after 15 mins by fluorescence assay. In kind it is functional.

As to `CSCCC(NC(=O)c1ccccc1)c1nc2ccccc2[nH]1` (configuration not stated), the IC50 (in general, the point on the concentration scale where inhibition reaches its midpoint) on fMet-Leu-Phe receptor [1] is 5010 nM.
Still for that read-out and setting: with `CSCCC(NC(=O)C1CCCCC1)c1nc2ccccc2[nH]1` (configuration not stated) the figure was 2510 nM; with `CSCCC(NC(=O)c1ccccc1O)c1nc2ccccc2[nH]1` (configuration not stated), 3980 nM.
In the case of `CSCCC(NC(=O)c1sccc1Cl)c1ncc(-c2ccccc2)[nH]1` (configuration not stated), in [2], the inhibition (in general, the drop in the measured response relative to a control, in per cent) is less than 25%. The IC50 on fMet-Leu-Phe receptor [1] was 6310 nM.
As to `Cc1cccc(C)c1NC(=O)C(NC(=O)c1ccccc1O)c1ccccc1` (configuration not stated), the IC50 on fMet-Leu-Phe receptor [1] is 1260 nM.
On to `CSCCC(NC(=O)c1sccc1Cl)c1nc2ccccc2[nH]1` (configuration not stated), for which the IC50 at fMet-Leu-Phe receptor [1] was 2000 nM.
On to `CCOc1ccc2oc(C(=O)NC(CCSC)c3nc4ncncc4[nH]3)c(C)c2c1` (configuration not stated), for which, in series [2], the inhibition is less than 25%. Further, the IC50 at fMet-Leu-Phe receptor [1] is 5010 nM.
In the case of `O=C(NC(C(=O)Nc1ccccc1)c1ccc(Cl)cc1)c1ccccc1O` (configuration not stated), at fMet-Leu-Phe receptor [1], the IC50 is 5010 nM.
Turning to `CCOc1ccc2oc(C(=O)NC(c3ccccc3)c3nc4ccccc4[nH]3)c(C)c2c1` (configuration not stated), in [3], the inhibition is less than 25%. The microsomal CLint – broadly, a measure of how fast metabolising enzymes remove a compound, apart from limits set by blood flow – in series [4] came out at 14 µL/min/mg.
Consider `CCOc1ccc2oc(C(=O)NC(CCSC)c3nc4cnccc4[nH]3)c(C)c2c1` (configuration not stated), for which the EC50 – broadly, the concentration that produces a half-maximal response – at fMet-Leu-Phe receptor [5] is 1580 nM. The IC50 at fMet-Leu-Phe receptor [1] was 1000 nM. The Intrinsic activity in series [6] is 0.8.
For the molecule `Cc1cccc(C)c1NC(=O)C(NC(=O)c1ccccc1O)C1CCCCC1` (configuration not stated), the IC50 at fMet-Leu-Phe receptor [1] was 794 nM.
As for `COc1ccccc1C(=O)NC(CCSC)c1nc2ccccc2[nH]1` (configuration not stated), in series [3], the inhibition is less than 25%.
In the case of `Cc1cccc(C)c1NC(=O)C(c1ccccc1)N(C)C(=O)c1ccccc1O` (configuration not stated), the IC50 at fMet-Leu-Phe receptor [1] was 10000 nM.
Take `CSCCC(NC(=O)Cc1ccccc1)c1nc2ccccc2[nH]1` (configuration not stated): the inhibition in [3] was less than 25%.
As to `CSCCC(NC(=O)c1cnccn1)c1nc2ccccc2[nH]1` (configuration not stated), the IC50 on fMet-Leu-Phe receptor [1] is 10000 nM.
As for `Cc1cccc(C)c1NC(=O)C(NC(=O)c1nc2ccccc2[nH]c1=O)c1ccc(Cl)cc1` (configuration not stated), at fMet-Leu-Phe receptor [1], the IC50 is 2510 nM.
As to `CCOc1ccc2oc(C(=O)NC(c3nc4ccccc4[nH]3)c3cccs3)c(C)c2c1` (configuration not stated), the inhibition in series [3] was less than 25%.
On to `CSCCC(NC(=O)c1ccccc1)c1nc2ccccc2n1Cc1ccc(C#N)cc1` (configuration not stated), for which, in [2], the inhibition is less than 25%. The IC50 on fMet-Leu-Phe receptor [1] is 316 nM.
`Cc1ccc(C(NC(=O)c2ccccc2O)C(=O)Nc2c(C)cccc2C)s1` (configuration not stated): the inhibition in [7], in series [11], in series [12], in series [15] and in series [17] was less than 25% each time. Moreover, the IC50 with THP-1 is 79.4 µM; on fMet-Leu-Phe receptor [8], 398 nM; in series [9] it was 1260 nM; at fMet-Leu-Phe receptor [1] it was 316 nM; at fMet-Leu-Phe receptor [13], 100 nM; at fMet-Leu-Phe receptor [16] it was 25.1 µM. For the same molecule, the results for the IC50 on fMet-Leu-Phe receptor [18] and at fMet-Leu-Phe receptor [20] were 1580 nM and 398 nM, respectively. Also, the microsomal CLint in [4] was found to be 43 µL/min/mg. In [10], the half-life (in general, how long it takes for the measured level to halve) was greater than 10.8 days. Further, the inhibition result in series [14] was “Active”. In [19], the concentration in solution (solubility) was 68 µM (≈ 26.8 µg/mL). The CL in the series on Hepatocyte was 70 µL/min.

(Values after ChEMBL document CHEMBL1770079, “Discovery of small molecule human FPR1 receptor antagonists” (Bioorg Med Chem Lett, 2011).)
